Measurements from patent publication US20070135457A1, “Pyrido[2,3-d]pyrimidine-2,4-diamines as pde2 inhibitors” (Pfizer Inc., priority 2003, published 2007).
Read-outs that look alike come from different tables or passages of the source.

What was measured:
[1] = target: T1, PDE 2 enzyme isolated from human platelets (Homo sapiens, UniProt O00408); assay: PDE 2 enzyme scintillation proximity assay (SPA); assay type: biochemical
T1 construct: PDE 2 enzyme was isolated from human platelets; from tissue; host or cells: human platelets (pooled blood from multiple donors); HiTrap Q anion-exchange fraction eluting at about 325 mM NaCl
Experimental: PDE 2 enzyme was isolated from human platelets with approximately 1.4 L of blood from multiple donors used to make the platelet pellets. Platelets were resuspended in approximately 75 mL of lysis buffer [20 mM Tris pH 7.2, 5 mM MgCl2, 250 mM Sucrose, 1 mM DTT, 1 μL/2 mL Sigma Protease inhibitor #8340; Sigma-Aldrich; St. Louis, Mo.] and lysed by sonication at 4° C., with 3 rounds of 1 min bursts then spun at 4° C. overnight at 100,000×g. Cleared lysates were loaded to AKTA Explorer FPLC (Amersham Biosciences; Piscataway, N.J.) in a series of three chromatographic separations, with an average load volume of 25 mL. A 5 mL HiTrap Q anion exchange column (Amersham Biosciences) was used. […] Two major cGMP activity fractions (PDE 5 and PDE 2) were isolated and pooled separately. The PDE 2-pooled fraction total was approximately 40 mL which was dispensed in cryovials of 200 μl/vial and placed in storage at −80° C.
The inhibitory activity of the compounds of formula (I) on recombinant or isolated PDE 2, and other PDE's, was determined using the […] scintillation proximity assay (SPA) kits from Amersham International (Little Chalfont, England). The SPA assays were performed using 96 well plates. The PDE SPA yttrium silicate beads (Amersham Biosciences) bind preferentially to the linear nucleotide, GMP, compared to the cyclic nucleotide, cGMP. ^3H-cGMP was added to the reaction and when the product, ^3H-GMP, was in […] to the beads, the scintillant within the bead was excited, which was detected using a Packard scintillation counter (Perkin-Elmer Life Sciences; Boston, Mass.). The enzyme concentration used was in the linear range and the Km of the enzyme was determined (15 uM). The final substrate concentration was <1/3 of Km (1 μM) so that IC50 values would approximate the Ki values. The assay was validated using literature compounds as controls before testing compounds. Then, PDE catalytic activity measurements obtained in the presence of the test compound, and those obtained in the absence of the test compound, were compared and the lC50 value is determined. […]

[2] = SPA, 1 μM substrate, read-out: PDE 2 Inhibition

T1 sequence (O00408 whole entry): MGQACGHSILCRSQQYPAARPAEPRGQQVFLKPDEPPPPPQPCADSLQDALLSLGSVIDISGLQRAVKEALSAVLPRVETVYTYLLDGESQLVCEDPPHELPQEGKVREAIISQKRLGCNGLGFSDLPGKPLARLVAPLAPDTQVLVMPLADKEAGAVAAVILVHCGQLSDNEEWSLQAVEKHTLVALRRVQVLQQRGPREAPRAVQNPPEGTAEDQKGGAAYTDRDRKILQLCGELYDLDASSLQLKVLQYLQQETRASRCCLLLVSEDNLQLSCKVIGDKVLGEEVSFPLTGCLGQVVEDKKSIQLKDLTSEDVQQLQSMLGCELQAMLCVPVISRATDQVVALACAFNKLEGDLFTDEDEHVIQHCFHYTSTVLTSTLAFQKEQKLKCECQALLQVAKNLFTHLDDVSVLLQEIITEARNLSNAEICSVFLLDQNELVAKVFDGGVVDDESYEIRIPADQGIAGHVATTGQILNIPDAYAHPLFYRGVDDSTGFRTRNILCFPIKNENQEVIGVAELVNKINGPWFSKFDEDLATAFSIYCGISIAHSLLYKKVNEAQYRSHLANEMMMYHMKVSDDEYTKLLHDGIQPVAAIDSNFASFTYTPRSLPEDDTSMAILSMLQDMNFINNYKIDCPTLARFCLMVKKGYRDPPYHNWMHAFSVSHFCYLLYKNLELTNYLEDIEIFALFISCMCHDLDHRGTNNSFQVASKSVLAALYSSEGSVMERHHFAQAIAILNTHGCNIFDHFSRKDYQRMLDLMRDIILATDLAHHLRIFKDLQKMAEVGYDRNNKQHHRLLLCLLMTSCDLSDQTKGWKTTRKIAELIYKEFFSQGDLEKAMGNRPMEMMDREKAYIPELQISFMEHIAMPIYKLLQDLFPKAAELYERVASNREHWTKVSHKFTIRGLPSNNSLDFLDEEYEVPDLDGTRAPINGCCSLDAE

| Structure (SMILES) | IC50 ([1]; PDE 2 isolated from human platelets, read-out: IC50) [nM] | IC50 [1, 2] [nM] | melting point [°C] |
| --- | --- | --- | --- |
| CCCCCCC(C(C)O)n1cnc2c(N)ncnc21 (stereo not drawn) [EHNA, erythro-9-(2-hydroxy-3-nonyl)adenine, reference compound] | 1700 |  |  |
| COc1cc(CNc2nc(NCc3cccnc3)nc3ncccc23)cc(OC)c1 [Example 4, N^4-(3,5-Dimethoxy-benzyl)-N^2-2-pyridin-3-ylmethyl-pyrido[2,3-d]pyrimidine-2,4-diamine] |  | 250 to 1000 | 222 to 223 |
| COc1ccc(CCNc2nc(NCc3cc(OC)cc(OC)c3)c3cccnc3n2)cc1 [Example 6, N^4-(3,5-Dimethoxy-benzyl)-N^2-[2-(4-methoxy-phenyl)-ethyl]-pyrido[2,3-d]pyrimidine-2,4-diamine] |  | 250 to 1000 | 88 to 89 |
| COc1cc(CNc2nc(NCCc3ccc(Cl)cc3)nc3ncccc23)cc(OC)c1 [Example 8, N^2-[2-(4-Chloro-phenyl)-ethyl]-N^4-(3,5-dimethoxy-benzyl)-pyrido[2,3-d]pyrimidine-2,4-diamine] |  | 250 to 1000 | 85 to 90 |
| COc1cc(CNc2nc(NCc3ccccc3)nc3ncccc23)cc(OC)c1 [Example 9, N^2-Benzyl-N^4-(3,5-dimethoxy-benzyl)-pyrido[2,3-d]pyrimidine-2,4-diamine] |  | 250 to 1000 | 84 to 85 |
| COc1cc(CNc2nc(NCc3ccc(C(C)(C)O)cc3)nc3ncccc23)cc(OC)c1 [Example 11, 2-(4-{[4-(3,5-Dimethoxy-benzylamino)-pyrido[2,3-d]pyrmidin-2-ylamino]-methyl}-phenyl)-propan-2-ol] |  | 250 to 1000 | 105 to 109 |
| COc1ccc(CNc2nc(NCCc3cccc(F)c3)nc3ncccc23)cc1OC [Example 14, N^4-(3,4-Dimethoxy-benzyl)-N^2-[2-(3-fluoro-phenyl)-ethyl]-pyrido[2,3-d]pyrimidine-2,4-diamine] |  | 50 to 250 | 227 to 228 |
| COc1ccc(CNc2nc(NCCc3ccccc3F)nc3ncccc23)cc1OC [Example 15, N^4-(3,4-Dimethoxy-benzyl)-N^2-[2-(2-fluoro-phenyl)-ethyl]-pyrido[2,3-d]pyrimidine-2,4-diamine] |  | 50 to 250 | 220 to 222 |
| COc1ccc(CNc2nc(NCCCCc3ccccc3)nc3ncccc23)cc1OC [Example 18, N^4-(3,4-Dimethoxy-benzyl)-N^2-(4-phenyl-butyl)-pyrido[2,3-d]pyrimidine-2,4-diamine] |  | 50 to 250 | 194 to 195 |
| COc1ccc(CNc2nc(NCCOc3ccccc3)nc3ncccc23)cc1OC [Example 19, N^4-(3,4-Dimethoxy-benzyl)-N^2-(2-phenoxy-ethyl)-pyrido[2,3-d]pyrimidine-2,4-diamine] |  | 50 to 250 | 227 to 228 |
| COc1ccc(CNc2nc(NCc3ccccc3C(F)(F)F)nc3ncccc23)cc1OC [Example 20, N^4-(3,4-Dimethoxy-benzyl)-N^2-(2-trifluoromethyl-benzyl)-pyrido[2,3-d]pyrimidine-2,4-diamine] |  | 250 to 1000 | 227 to 228 |
| COc1ccc(CNc2nc(NCCCc3ccc(C(C)(C)O)cc3)nc3ncccc23)cc1OC [Example 21, 2-(4-{3-[4-(3,4-Dimethoxy-benzylamino)-pyrido[2,3-d]pyrimidin-2-ylamino]-propyl}-phenyl)-propan-2-ol] |  | 250 to 1000 | 198 to 199 |
| COc1cc(CNc2nc(NCCCc3ccc(C(C)(C)O)cc3)nc3ncccc23)cc(OC)c1 [Example 22, 2-(4-{3-[4-(3,5-Dimethoxy-benzylamino)-pyrido[2,3-d]pyrimidin-2-ylamino]-propyl}-phenyl)-propan-2-ol] |  | 50 to 250 | 70 to 75 |
| COc1ccc(CNc2nc(NCc3ccc(C(O)C(F)(F)F)cc3)nc3ncccc23)cc1OC (stereo not drawn) [Example 23, 1-(4-{[4-(3,4-Dimethoxy-benzylamino)-pyrido[2,3-d]pyrimidin-2-ylamino]-methyl}-phenyl)-2,2,2-trifluoro-ethanol] |  | 250 to 1000 | 121 to 122 |
| COc1ccc(CNc2nc(NCCCc3ccc(C(C)=O)cc3)nc3ncccc23)cc1OC [Example 24, 1-(4-{3-[4-(3,4-Dimethoxy-benzylamino)-pyrido[2,3-d]pyrimidin-2-ylamino]-propyl}-phenyl)-ethanone] |  | 250 to 1000 | 184 to 185 |
| COc1ccc(CNc2nc(NCCCc3ccc(C(O)C(F)(F)F)cc3)nc3ncccc23)cc1OC (stereo not drawn) [Example 25, 1-(4-{3-[4-(3,4-Dimethoxy-benzylamino)-pyrido[2,3-d]pyrimidin-2-ylamino]-propyl}-phenyl)-2,2,2-trifluoro-ethanol] |  | 50 to 250 | 222 to 224 |
| COc1ccc(CNc2nc(NCCCc3ccc4nonc4c3)nc3ncccc23)cc1OC [Example 26, N^2-3-(Benzo[1,2,5]oxadiazol-5-yl-propyl)-N^4-(3,4-dimethoxy-benzyl)-pyrido[2,3-d]pyrrimidine-2,4-diamine] |  | 250 to 1000 | 191 to 193 |
| COc1ccc(CNc2nc(NCCCc3ccc4ncsc4c3)nc3ncccc23)cc1OC [Example 27, N^2-3-(Benzothiazol-6-yl-propyl)-N^4-(3,4-dimethoxy-benzyl)-pyrido[2,3d]pyrimidine-2,4-diamine] |  | 250 to 1000 | 191 to 193 |
| COc1ccc(CNc2nc(NCCCc3cccc(C4(C)OCCO4)c3)nc3ncccc23)cc1OC [Example 28, N^4-(3,4-Dimethoxy-benzyl)-N^2-{3-[3-(2-methyl-[1,3]-dioxolan-2-yl)-phenyl]-propyl}-pyrido[2,3-d]pyrimidine-2,4-diamine] |  | 250 to 1000 |  |
| COc1cc(CNc2nc(NCCCc3ccncc3)nc3ncccc23)cc(OC)c1 [Example 31, N^4-(3,5-Dimethoxy-benzyl)-N^2-(3-pyridin-4-yl-propyl)-pyrido[2,3d]pyrimidine-2,4-diamine] |  | 250 to 1000 |  |

Now from value to molecule:

| IC50 ([1]; PDE 2 isolated from human platelets, read-out: IC50) [nM] | IC50 [1, 2] [nM] | melting point [°C] | Structure (SMILES) |
| --- | --- | --- | --- |
|  | 50 to 250 | 157 to 158 | COc1cc(CNc2nc(NCCc3ccccn3)nc3ncccc23)cc(OC)c1 [Example 1, N^4-(3,5-Dimethoxy-benzyl)-N^2-(2-pyridin-2-yl-ethyl)-pyrido[2,3-d]pyrimidine-2,4-diamine] |
|  | 50 to 250 | 185 to 186 | COc1cc(CNc2nc(NCCc3cccnc3)nc3ncccc23)cc(OC)c1 [Example 2, N^4-(3,5-Dimethoxy-benzyl)-N^2-(2-pyridin-3-yl-ethyl)-pyrido[2,3-d]pyrimidine-2,4-diamine] |
|  | < 50 | 159 to 160 | COc1cc(CNc2nc(NCc3cc(OC)cc(OC)c3)c3cccnc3n2)cc(OC)c1 [Example 5, N^2-N^4-Bis-(3,5-dimethoxy-benzyl)-pyrido[2,3-d]pyrimidine-2,4-diamine] |
|  | 50 to 250 |  | COc1cc(CNc2nc(NCCCc3ccccc3)nc3ncccc23)cc(OC)c1 [Example 7, N^4-(3,5-Dimethoxy-benzyl)-N^2-(3-phenyl-propyl)-pyrido[2,3-d]pyrimidine-2,4-diamine] |
|  | < 50 | 120 to 121 | COc1cc(CNc2nc(NCCc3cccs3)nc3ncccc23)cc(OC)c1 [Example 10, N^4-(3,5-Dimethoxy-benzyl)-N^2-(2-thiophen-2-yl-ethyl)-pyrido[2,3-d]pyrimidine-2,4-diamine] |
|  | 50 to 250 | 112 to 114 | COc1cc(CNc2nc(NCCc3ccccc3)nc3ncccc23)cc(OC)c1 [Example 12, N^4-(3,5-Dimethoxy-benzyl)-N^2-2-phenethyl-pyrido[2,3-d]pyrimidine-2,4-diamine] |
|  | 50 to 250 | 95 to 100 | COc1cc(CCNc2nc(NCc3cc(OC)cc(OC)c3)c3cccnc3n2)cc(OC)c1 [Example 13, N^4-(3,5-Dimethoxy-benzyl)-N^2-[2-(3,5-dimethoxy-phenyl)-ethyl]-pyrido[2,3-d]pyrimidine-2,4-diamine] |
|  | < 50 | 225 to 226 | COc1ccc(CNc2nc(NCCc3ccc(F)cc3)nc3ncccc23)cc1OC [Example 16, N^4-(3,4-Dimethoxy-benzyl)-N^2-[2-(4-fluoro-phenyl)-ethyl]-pyrido[2,3-d]pyrimidine-2,4-diamine] |
|  | < 50 | 217 to 218 | COc1ccc(CNc2nc(NCCc3ccccc3)nc3ncccc23)cc1OC [Example 17, N^4-(3,4-Dimethoxy-benzyl)-N^2-phenethyl-pyrido[2,3-d]pyrimidine-2,4-diamine] |
